Columns and labels:
[1] = system: uveal melanoma; set-up: method as in PMID 22550165; conditions: ref [7], cited from earlier work
[2] = clinical; conditions: human, in vivo
Method: Non-compartmental analyses were performed on the data for day 1, 2, 15 and 17 using Winnonlin software (Phoenix Winnonlin 8.3.1.5014, Certara L.P., Princeton, NJ). […] Data were summarized per dose level and per occasion. Dose-exposure relationships were explored by plotting dose versus the various parameters. Accumulation was investigated using the AUC assessed at various days.

[3] = system: metastatic uveal melanoma; assay: Phase Ib trial of intermittent selumetinib: clinical efficacy (RECIST v1.1, PFS, OS); format: in vivo, human
Description: This was a multi-center, open-label, phase Ib study conducted at Columbia University Irving Medical Center (New York, NY), University of Texas MD Anderson Cancer Center (Houston, TX), and Memorial Sloan Kettering Cancer Center (New York, NY). The primary objective of this study was to determine the maximum tolerated dose (MTD) of selumetinib administered using an intermittent dosing schedule in patients with metastatic UM. […] Exploratory objectives included pharmacodynamic (PD) assessment of target inhibition of the MEK pathway.
Descriptive statistics were used to report baseline characteristics of the study population. The observed rate and estimated rate of DLT were reported for each dose level along with the 90% probability interval. The number and percentage of patients with adverse events were summarized taking the highest grade and reported by grade for AEs that were at least possibly related to treatment. AEs with at prevalence of least 10% were reported separately. The overall response rate (ORR) was defined as a confirmed complete response (CR) or partial response (PR) according to RECIST 1.1 criteria ([18]) and reported by dose level. Disease control rate (DCR) was defined as the percentage of patients with a confirmed CR, PR or stable disease. PFS was measured from date of enrollment until the date of progression or death, whichever occurred first. OS was defined as the time from the date of registration to the date of death by any cause.
Imaging was obtained at baseline, at 8 weeks after start of study treatment, and then every 8 weeks thereafter. Imaging of the chest, abdomen, and pelvis was required at each time point, with contrast enhanced MRI of the liver performed whenever possible. Response was assessed using RECIST v.1.1 criteria by investigator assessment. Criteria for removal from study included radiographic or clinical disease progression, or unacceptable toxicity.

[4] = system: pERK; assay: Pharmacodynamic analysis of serial tumor biopsies (immunoblot, densitometry); format: in vivo, human
Method: Serial tumor biopsies were collected from patients at baseline, on day 3, and between days 11 and 14. Flash-frozen specimens were lysed in RIPA lysis buffer. Equal amounts of protein were loaded on 4-20% PAGE gels (Invitrogen) and analyzed by immunoblotting using antibodies for pERK, ERK, cyclin D1 and α-tubulin (Cell Signaling). Signals from secondary antibodies were detected using ECL (Pierce) and autoradiography films. Densitometry analysis of each band was performed using Photoshop C6 and normalized to tubulin expression.

[5] = All Levels, investigator assessed RECIST v1.1
[6] = Level 1 (100 mg BID), investigator assessed RECIST v1.1
[7] = Level 2 (125 mg BID), investigator assessed RECIST v1.1
[8] = Level 3 (150 mg BID), investigator assessed RECIST v1.1
[9] = Level 4 (175 mg BID), investigator assessed RECIST v1.1

Cn1cnc2c(F)c(Nc3ccc(Br)cc3Cl)c(C(=O)NOCCO)cc21 [selumetinib]
median PFS ([1]; selumetinib 75 mg BID vs temozolomide or DTIC): 16 weeks
patients achieving an objective radiographic response ([1]; selumetinib 75 mg BID): 14%
half-life [2]: 4.3 h
Tmax ([2]; po): ~1.7 h
median PFS ([3]; 125mg twice daily cohort): 1.7 months
Complete Response (CR) [3, 5]: 0
Partial Response (PR) [3, 5]: 0
Median duration of Stable Disease ([3]; Level 1 (100 mg BID)): 7.1 months
Complete Response (CR) [3, 6]: 0
Overall Response Rate (ORR) [3, 6]: 0
Partial Response (PR) [3, 6]: 0
Median Time to Progression (range) ([3]; Level 1 (100 mg BID), range 1.2-10.8): 3.4 months (1.2-10.8)
Median duration of Stable Disease ([3]; Level 2 (125 mg BID)): 4.1 months
Complete Response (CR) [3, 7]: 0
Overall Response Rate (ORR) [3, 7]: 0
Partial Response (PR) [3, 7]: 0
Median Time to Progression (range) ([3]; Level 2 (125 mg BID), range 0.9-5.5): 1.7 months (0.9-5.5)
Median duration of Stable Disease ([3]; Level 3 (150 mg BID)): 4.9 months
Complete Response (CR) [3, 8]: 0
Overall Response Rate (ORR) [3, 8]: 0
Partial Response (PR) [3, 8]: 0
Median Time to Progression (range) ([3]; Level 3 (150 mg BID), range 0.9-6.2): 3.7 months (0.9-6.2)
Complete Response (CR) [3, 9]: 0
Overall Response Rate (ORR) [3, 9]: 0
Partial Response (PR) [3, 9]: 0
Progressive Disease (PD), patients/total (%) [3, 9]: 0
ORR ([3]; all 29 patients, RECIST v1.1): 0%
best response of stable disease, percent of patients ([3]; at 8 weeks from treatment initiation, n=11 of 29): 38%
median progression-free response by cohort ([3]; range across dose cohorts): 1.7-3.7 months
median PFS ([3]; total population (29 patients), 95% CI 1.7, 4.5): 1.8 months
median OS ([3]; total population (29 patients), 95% CI 5.3, 11.5): 7.1 months
mean reduction in pERK expression ([4]; day 3 of first cycle (on treatment) vs baseline, n=9): 41.3%
mean increase in pERK expression from day 3 ([4]; day 11-14, off-treatment window): 69.3%
cases with at least partial pERK recovery ([4]; day 11-14 off treatment, of 9 patients): 7 cases

From publication PMC9557946, “Intermittent MEK inhibition for the treatment of metastatic uveal melanoma” (Frontiers in Oncology, 2022)
